Laboratory results taken from patent US10959992B2, “Methods of treatment of asthma and COPD” (Bridge Pharma, Inc., priority 2019, dated 2021).
Values after ≈ are worked out from the molar mass of the structure shown.

Tests used:
[1] = test system: croton oil-induced ear swelling; assay: Croton oil-induced ear swelling; assay type: in vivo, CD-1 female mice; parameters: Average ear thickness: unit not given beside the values; details: for Average ear thickness: single oral dose 10 mg/kg 60 min before
Method: The effects of NK, PRED and the vehicle (5% PEG in water) were tested orally in CD-1 female mice. Under the test protocol, 20 μl of 1.0% croton oil in acetone was applied topically to both ears of three groups of mice, each group consisting of 6 mice. No attempt was made to remove the croton oil solution since the solvent evaporated within 30 seconds. The oral doses of NK and PRED were 10 mg/kg (10 ml/kg) bodyweight for both compounds and were administered 60 min before the croton oil applications. Vehicle-treated mice were dosed 10 ml/kg of water, containing 5% polyethylene glycol (PEG), which was also the solvent for the test articles. Ear thickness was measured with an electronic caliper and mean ear thickness (N=12; right+left ears) were calculated and compared with the thickness of ears from vehicle-treated mice (Student's t-test).

TNF-α = assay: PHA-induced release of TNF-α from human buffy coats; assay type: cell-based; details: PHA 5 μg/ml, 16 hours, inhibition
Method: (§1) The study was conducted in two phases. The first phase included optimization of the test methodology and included also dose-range finding studies, using buffy coats from 3 human donors, stimulated with phytohemagglutinin (PHA). The concentrations of the test article and the duration of exposure were optimized to obtain acceptable dose-response ratios. Following optimization of the test conditions, a final protocol was issued. In the Main Study, buffy coats from 5 healthy human male donors were stimulated with PHA, 5 μg/ml.
(§2) The inhibitory effects of three concentrations of NK and one concentration of ketotifen were evaluated in the Main Study. The buffy coats were resuspended in assay media and were pre-incubated for 30 min with either vehicle/saline, ketotifen (10 μM) or norketotifen (1.0; 10 or 100 μM). Following these preincubations, the white blood cell suspensions were stimulated for 16 hours with PHA, 5 μg/ml. The cell system supernatants were then harvested and stored frozen.

[2] = Lung/plasma distribution of norketotifen in rats; assay type: in vivo, SPD rats; details: for Kp: male, SPD, rat, lung/plasma, 20 mg/kg/day; for Lung Concentration / Plasma Concentration: rats
Method: Groups of male SPD rats (200-230 g) were administered racemic norketotifen hydrogen Fumarate 20 mg/kg/day (=14.4 mg/kg/day of the free base) for 10 consecutive days. Lung and plasma samples were collected and prepared and the concentrations of RS-norketotifen were determined using a qualified LC-MS-MS analytical method. LLQ (Lowest Level of Quantification) was <0.5 ng/ml.

sedation [3] = details: orally administered, humans; U.S. Pat. Nos. 9,138,431 and 9,345,697; cited from earlier work
sedation [4] = details: art-accepted mouse model of sedation; U.S. Pat. Nos. 7,226,934 and 7,557,128; cited from earlier work
[5] = test system: Staphylococcus intermedius; assay: Antimicrobial activity (MIC), Staphylococcus intermedius; assay type: cell-based; details: Bacteria: Si, MIC refers to lethal concentrations
Trichophyton rubrum = assay: Antimicrobial activity (MIC), Trichophyton rubrum; assay type: cell-based; details: Mold: Tr, MIC refers to lethal concentrations
[6] = Lung/plasma distribution of norketotifen in dogs; assay type: in vivo, Beagle dogs; details: for Post-dose Lung Concentration / Post-dose Plasma Concentration / Kp: dog; for Post-dose Lung Concentration / Post-dose Plasma Concentration: oral 8.0 mg/kg/day NK-FB for four days; for Kp: female, Beagle, lung/plasma, 11.46 mg/kg/day
Method: One group (N=3) of female Beagle dogs (8 to 10 kg/24 to 28 months) were administered racemic norketotifen hydrogen fumarate (RS-NK-HF) 11.46 mg/kg/day for 4 consecutive days. (11.46 mg of NK-HF is equal to 8.0 mg of the free base (RS-NK-FB).
Plasma samples were collected daily on Days 2, 3 and 4. The last blood samples were taken four hours after dosing on Day 4. Lung and plasma concentrations of norketotifen were determined using a qualified LC-MS-MS analytical method. LLQ was <0.5 ng/ml. Immediately after blood collection on Day 4, all animals were euthanized with an overdose of pentobarbital, administered intravenously, followed by exsanguination. Lung tissue samples (approximately 1 g each) were collected from each animal from the left and right pulmonary lobes, samples were trimmed and dried of any access blood using absorbent paper, weighed and then kept in conical tubes frozen on dry ice and stored at −80° C. pending analysis. Six samples from each animal (3 samples per side) were analyzed.

PAF-induced eosinophilia = assay: PAF-induced pulmonary eosinophil accumulation after continuous subcutaneous dosing; assay type: in vivo, Sprague-Dawley rats; details: sc 1.0 mg/kg/day for six days, PAF-treated rats
Method: Male Sprague-Dawley rats, 400-600 g, were used in these studies.
The study described here used subcutaneous administration of norketotifen and ketotifen by Alzet® osmotic pumps. The rats were administered either RS-norketotifen hydrogen fumarate (1.0 mg/kg/day) or RS-ketotifen hydrogen fumarate (1.0 mg/kg/day) or saline. After five days of sc infusions of test articles and the vehicle, the animals were injected, i.p. with 10 μg PAF (platelet aggregating factor) in 0.25% bovine serum albumin (BSA) in saline. The subcutaneous infusions of test articles or vehicle were continued for another twenty-four hours and the animals were then sacrificed by intraperitoneal injections of a barbiturate. The tracheae of the euthanized animals were exposed and cannulated and aliquots (6×10 ml) of a Tyrode solution were successively introduced into the lungs and aspirated by gentle compression of the thorax. The total recovery of lung fluid was usually above 80%. The cell suspensions were concentrated by low speed centrifugation (200 g for 10 min) and the resulting cell pellet was resuspended in 1 ml of a Tyrode solution. Total cell counts were performed after dilution in Turks fluid, fixation in methanol and Leishman staining.
The study shown here used norketotifen, ketotifen, and saline (control) after continuous dosing with Alzet® Osmotic pumps.

IL-2 = assay: PHA-induced release of IL-2 from human buffy coats; assay type: cell-based; details: PHA 5 μg/ml, 16 hours, inhibition
Method: as §1, §2

[7] = Dose Day 4, once daily oral 14.4 mg/kg free base
[8] = Dose Day 7, once daily oral 14.4 mg/kg free base
[9] = Last dose + 24 hrs, once daily oral 14.4 mg/kg free base for 10 days
[10] = Last dose, Day 10, once daily oral 14.4 mg/kg free base

SMILES: O=C1Cc2ccccc2C(=C2CCNCC2)c2ccsc21 (racemic) [norketotifen]
- Average ear thickness ([1]; 0 (predose) min after croton oil, vehicle 0.21 ± 0.02): 0.21 ± 0.02
- Average ear thickness ([1]; 90 min after croton oil, vehicle 0.29 ± 0.04): 0.24 ± 0.02
- Average ear thickness ([1]; 120 min after croton oil, vehicle 0.28 ± 0.02): 0.25 ± 0.02
- Anti-inflammatory effect compared with vehicle control group (conclusion in words) ([1]; single oral dose 10 mg/kg, croton oil ear swelling in mice): statistically significant anti-inflammatory effects
- Effect on PHA-induced release of TNF-α (%) (TNF-α; 1 uM): 45.57^2%
- Effect on PHA-induced release of TNF-α (%) (TNF-α; 10 uM): 63.07^1%
- Effect on PHA-induced release of TNF-α (%) (TNF-α; 100 uM): 95.68^1%
- Kp ([2]; oral, Dose Day 4, read-out: Lung/Plasma Ratio in Rats): 133
- Kp ([2]; oral, Dose Day 7, read-out: Lung/Plasma Ratio in Rats): 92
- Kp ([2]; oral, Last dose + 24 hrs, read-out: Lung/Plasma Ratio in Rats): 107
- Kp ([2]; oral, Last dose, Day 10, read-out: Lung/Plasma Ratio in Rats): 79
- Kp ([2]; po, mean of the four study days, oral dosing, read-out: Lung/Plasma Ratio in Rats, Mean ± SEM): 103
- Lung/Plasma Ratio in Rats, Mean ± SEM ([2]; mean of the four study days, oral dosing): 100
- Lung/Plasma Ratio in Rats, Mean ± SEM ([2]; mean of the four study days, oral dosing, listed as NK): 103 ± 11.6
- Lung/Plasma Ratio in Rats, Mean ± SEM ([2]; mean of the four study days, oral dosing, listed as RS-norketotifen): ~100
- Lung Concentration [2, 7]: 23612 ng/g
- Plasma Concentration [2, 7]: 178 ng/mL
- Lung Concentration [2, 8]: 25355 ng/g
- Plasma Concentration [2, 8]: 276 ng/mL
- Lung Concentration [2, 9]: 890 ng/g
- Plasma Concentration [2, 9]: 8.3 ng/mL
- Lung Concentration [2, 10]: 18171 ng/g
- Plasma Concentration [2, 10]: 229 ng/mL
- Sedative side effects (sedation [3]): free from sedative side effects
- Sedative effects (sedation [4]): significant sedative effects
- MIC [5]: 250 µg/mL (≈ 846 µM)
- MIC (Trichophyton rubrum): 500 µg/mL (≈ 1690 µM)
- Post-dose Lung Concentration ([6]; animal 001, Day 4): 23590 ng/g
- Post-dose Plasma Concentration ([6]; animal 001, Day 4): 301 ng/mL
- Post-dose Lung Concentration ([6]; animal 002, Day 4): 79546 ng/g
- Post-dose Plasma Concentration ([6]; animal 002, Day 4): 1651 ng/mL
- Post-dose Lung Concentration ([6]; animal 003, Day 4): 61093 ng/g
- Post-dose Plasma Concentration ([6]; animal 003, Day 4): 733 ng/mL
- Kp ([6]; oral, animal 001, Day 4, read-out: Lung / Plasma Ratio in Dogs): 78.4
- Kp ([6]; oral, animal 002, Day 4, read-out: Lung / Plasma Ratio in Dogs): 48.2
- Kp ([6]; oral, animal 003, Day 4, read-out: Lung / Plasma Ratio in Dogs): 83.3
- Kp ([6]; po, mean of three dogs, Day 4, once daily oral dosing, read-out: Lung / Plasma Ratio in Dogs, Mean ± SEM): 70
- Lung / Plasma Ratio in Dogs, Mean ± SEM ([6]; mean of three dogs, Day 4, once daily oral dosing, listed as NK): 70.0 ± 11.0
- Reduction of eosinophil counts below the baseline (saline control) level (PAF-induced eosinophilia): 26%
- Effect on PHA-induced release of IL-2 (%) (IL-2; 1 uM): 0.00%
- Effect on PHA-induced release of IL-2 (%) (IL-2; 10 uM): 46.63^1%
- Effect on PHA-induced release of IL-2 (%) (IL-2; 100 uM): 93.47^1%
